Literature values as cited in patent US20050233005A1, “Use of glycosaminoglycans and zinc derivatives for insect bites, stings and the like” (priority 2004, published 2005).

Assays:
[1] = topical applications and oral administration, animal models and humans (SCCNFP report, 2003)
[2] = tested on: pruritus caused by mosquito bites; settings: administered prophylactically (Karppinen et al., 2002)
[3] = tested on: skin wound; settings: topical application (Chen and Abatengelo, 1999)
[4] = tested on: diabetic foot wounds; settings: in wound dressings (Vazquez et al., 2003)
[5] = tested on: porcine wounds; settings: topical application (Tarnow et al., 1994; Agren et al., 2001)

Compound | toxicity [1] | pruritus caused by mosquito bites [2] | other results
O=S(=O)([O-])[O-].[Zn+2] [zinc sulphate] | little or no toxicity |  | 
O=C(O)COCCN1CCN(C(c2ccccc2)c2ccc(Cl)cc2)CC1 (stereo not shown) [cetirizine] |  | significantly decrease | 
CC(C)(C)c1ccc(C(=O)CCCN2CCC(OC(c3ccccc3)c3ccccc3)CC2)cc1 [ebastine] |  | significantly decrease | 
Hyaluronic acid [HA] |  |  | skin wound healing [3]: accelerate; healing of diabetic foot wounds [4]: beneficial
[O]=[Zn] [zinc oxide] | little or no toxicity |  | release of growth factors [5]: enhanced
